Results published in PubChem BioAssay (NCI).
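Each compound was tested at five concentrations against cells in 96-well plates for 48 hours. GI50 marks 50% less growth. The concentration for full growth arrest is given as TGI.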

What was measured:
Assay in all cases: inhibition of tumour cell growth, NCI panel, 48 h
BT-549 breast = system: BT-549 breast
DU-145 prostate = system: DU-145 prostate
HT29 colon = system: HT29 colon
MCF7 breast = system: MCF7 breast
NCI-H460 lung = system: NCI-H460 lung
NCI/ADR-RES ovarian = system: NCI/ADR-RES ovarian
SK-OV-3 ovarian = system: SK-OV-3 ovarian
SW-620 colon = system: SW-620 colon
U251 CNS = system: U251 CNS
NCI-H522 lung = system: NCI-H522 lung

Structure (SMILES)	TGI (BT-549 breast) [µM]	TGI (DU-145 prostate) [µM]	TGI (HT29 colon) [µM]	TGI (MCF7 breast) [µM]	TGI (NCI-H460 lung) [µM]	TGI (NCI/ADR-RES ovarian) [µM]	TGI (SK-OV-3 ovarian) [µM]	TGI (SW-620 colon) [µM]	TGI (U251 CNS) [µM]	TGI (NCI-H522 lung) [µM]	GI50 (BT-549 breast) [µM]	GI50 (DU-145 prostate) [µM]	GI50 (HT29 colon) [µM]	GI50 (NCI-H460 lung) [µM]	GI50 (NCI-H522 lung) [µM]	GI50 (NCI/ADR-RES ovarian) [µM]	GI50 (SK-OV-3 ovarian) [µM]	GI50 (SW-620 colon) [µM]	GI50 (U251 CNS) [µM]
Cn1c(=O)cc(NNc2ccc(Cl)c(Cl)c2)[nH]c1=O	29.9	> 100	40.9	21.4	20.3	64.1	> 100	21.1	24.8										
CSc1ccc(/C=C2\N=C(c3ccccc3)N(c3nc4cc(Cl)c(F)cc4s3)C2=O)cc1	> 100	> 100	> 100	> 100	> 100	99.1	> 100	> 100	41.7										
c1cncc(CSc2nc3ccccc3nc2-c2cccs2)c1			> 100		> 100			> 100		> 100									
CC/C=N\N1C(N)=C(C#N)C(C#N)(C#N)C1CC (stereo not drawn)	> 100	> 100	86.4	> 100		> 100	> 100	> 100	> 100	> 100									
CCCCN(CCCC)CC(C(C)=O)C(c1ccccc1)c1c(O)c2ccccc2oc1=O (stereo not drawn)			> 100		> 100		> 100	> 100	> 100	> 100									
C=C(C)[C@H]1CC23C(=O)[C@@](C)(C[C@H]2C1(C)C)C(=O)C(C(=O)C(C)C)=C3O	37.7	> 100	26.4	32.6	45.3	27.8		34.5	39.7	36.8									
C=C1[C@@H]2CCC3[C@]4(C)C(CC[C@@]5(C)C(=O)O[C@H](O)[C@@H]45)[C@H](O)[C@]3(C2)[C@H]1OC1OC(CO)C(O)C(O)C1O (stereo partly drawn)	> 50	> 50	> 50	> 50	> 50	> 50	> 50	> 50	> 50										
CN(C)CCNCCCNc1c2ccccc2nc2cccc([N+](=O)[O-])c12	0.624	0.0525	< 0.0277	< 0.0268	0.108		0.26	1.34	0.0801	< 0.0133									
CCn1ncc2c(=O)n3ncn(-c4ccc(Br)cc4)c3nc21	> 100	> 100	> 100	> 100		> 100	> 100	> 100	> 100	> 100									
Nc1c(N2CCOCC2)c(=O)nc2[nH]/c(=C\c3ccccc3O)c(=O)n12		> 100	> 100	> 100	> 100	> 100	> 100	> 100	> 100	> 100									
O=C([C@H](O)[C@@H](O)c1cccc(Cl)c1)C12CC3CC(CC(C3)C1)C2	3.74	5.08	6.17	2.77		5.52	22.8	> 45	2.98	5.04									
O=C(c1ccc([N+](=O)[O-])cc1)N1CCCC1	> 100	> 100	> 100	> 100	> 100	> 100		> 100	> 100	> 100									
CN(C)CCCNC(=O)N/N=C/c1ccccc1			> 100		> 100		> 100	> 100	> 100	> 100									
O=C(c1ccco1)N(C(=O)N1CCC(c2ccccc2)CC1)c1ccccc1	> 100	> 100	> 100	> 100		91	> 100	> 100	> 100										
CC(=O)Oc1ccc2c(-c3ccccc3)c(Oc3ccc(Cl)cc3)c(=O)oc2c1	32.9	27.4	39.8	39.8	27.9			39.4	16.3	9.51									
O=C1c2cc3c(cc2-c2c1c1ccc(Cl)cc1c(=O)n2CCCn1ccnc1)OCO3	> 100	0.282	> 100		10.3	15.2	26.6	> 100	11.3	30.7	0.0491	< 0.01	0.0174	< 0.01	0.0182	< 0.01	< 0.01	< 0.01	< 0.01
Cc1cc(S(=O)(=O)N=C2Nc3cccc4cccc(c34)N2)c(S)cc1Cl	> 100	> 100		> 100	> 100	> 100		> 100	> 100	> 100									
O=C1Nc2cc(F)ccc2C1=O			> 100		> 100		> 100	> 100	> 100	> 100									
Cc1cc(-c2cc(C(C)(C)C)c(O)c(C(C)(C)C)c2)c(C)cc1-c1cc(C(C)(C)C)c(O)c(C(C)(C)C)c1	> 100	> 100	> 100	> 100		> 100	> 100	> 100	> 100	> 100									
CC(C)(C)c1ccnc(N=C2N=C(Nc3cc(C(C)(C)C)ccn3)c3ccccc32)c1			75		> 100		49	> 100	51	44.8									
COc1cc2c(c(OC)c1)[C@H](C)N(Cc1ccccc1)C(C)C2 (stereo partly drawn)	> 100	> 100	75.2	> 100	> 100		> 100	> 100		> 100									
Cc1ccc(C)c(COCCOCn2cc(N3CCOCC3)c(=O)[nH]c2=O)c1	> 100	> 100		> 100	> 100	> 100	> 100	> 100	> 100	> 100									
CCOC(=O)C(NC(=O)c1cccc(Cl)c1)(Nc1cccc(C)c1)C(F)(F)F (stereo not drawn)	26.1	99.6	27.8	39	47.6	38.8		37.2	79.3	20.5									
N#C/C(C(=O)NCc1ccccc1)=C(/N)N1CCCC1		> 100	> 100		> 100	> 100	> 100	> 100	> 100	> 100									
